Measurements: patent US20230009626A1 (ICHNOS SCIENCES S.A., priority 2018, published 2023)
Structures can show the parent of a compound that is named as a salt.

Target: HPK1 (MAP4K1) (Homo sapiens, UniProt Q92918)
Test: FRET Assay for HPK1 (MAP4K1): one step binding assay, displacement of labeled tracer
Settings: for inhibition at 1 µM: 1 μM compound; for inhibition at 1 µM / inhibition at 10 µM: FRET ratio 665/620, percent of control; for IC50: dose response curve, nonlinear regression; for inhibition at 10 µM: 10 μM compound
Text: FRET Assay for HPK1 (MAP4K1):
This is a one step binding assay based on the binding and displacement of the labeled tracer, where compound addition is followed by addition of the anti-GST tagged europium (Eu) as the donor and Alexa Fluor-labeled tracer as the acceptor. Simultaneous binding of both the tracer and GST-antibody to the kinase domain of HPK1 results in a high degree of FRET (fluorescence resonance energy transfer) from the anti-GST tagged europium (Eu) fluorophore to the Alexa Fluor® 647 fluorophore on the kinase tracer and this signal is reduced in presence of the inhibitor that can be measured.
Test compounds or reference compounds such as Sunitinib (Sigma) were dissolved in dimethylsulfoxide (DMSO) to prepare 10.0 mM stock solutions and diluted to the desired concentration. The final concentration of DMSO in the reaction was 3% (v/v). The assay mixture was prepared by mixing 4 nM of the Eu-Anti-GST Antibody and 10 nM MAP4K-1 enzyme in the Kinase buffer containing 50mM HEPES (pH 7.5), 10 mM MgCl2, 1 mM EGTA, 0.01% Brij-35 with or without the desired concentration of the compound. The reaction was incubated on ice for 15 mins. The pre-incubation step was followed by addition of the 20 nM Kinase Tracer 222 into the reaction mixture. After shaking for 5 min the reaction was further incubated for 1 hour at room temperature and this was kept at 4° C. and read on ARTEMIS reader as per the kit instructions (Thermo). […] The activity was calculated as percent of control reaction. IC50 values were calculated from dose response curve by nonlinear regression analysis using GraphPad Prism software.
Percentage inhibition at concentrations of 1.0 μM and 10.0 μM are given in the table along with IC50 (nM) details for selected examples.

Sequence of HPK1 (MAP4K1) (Q92918 whole entry): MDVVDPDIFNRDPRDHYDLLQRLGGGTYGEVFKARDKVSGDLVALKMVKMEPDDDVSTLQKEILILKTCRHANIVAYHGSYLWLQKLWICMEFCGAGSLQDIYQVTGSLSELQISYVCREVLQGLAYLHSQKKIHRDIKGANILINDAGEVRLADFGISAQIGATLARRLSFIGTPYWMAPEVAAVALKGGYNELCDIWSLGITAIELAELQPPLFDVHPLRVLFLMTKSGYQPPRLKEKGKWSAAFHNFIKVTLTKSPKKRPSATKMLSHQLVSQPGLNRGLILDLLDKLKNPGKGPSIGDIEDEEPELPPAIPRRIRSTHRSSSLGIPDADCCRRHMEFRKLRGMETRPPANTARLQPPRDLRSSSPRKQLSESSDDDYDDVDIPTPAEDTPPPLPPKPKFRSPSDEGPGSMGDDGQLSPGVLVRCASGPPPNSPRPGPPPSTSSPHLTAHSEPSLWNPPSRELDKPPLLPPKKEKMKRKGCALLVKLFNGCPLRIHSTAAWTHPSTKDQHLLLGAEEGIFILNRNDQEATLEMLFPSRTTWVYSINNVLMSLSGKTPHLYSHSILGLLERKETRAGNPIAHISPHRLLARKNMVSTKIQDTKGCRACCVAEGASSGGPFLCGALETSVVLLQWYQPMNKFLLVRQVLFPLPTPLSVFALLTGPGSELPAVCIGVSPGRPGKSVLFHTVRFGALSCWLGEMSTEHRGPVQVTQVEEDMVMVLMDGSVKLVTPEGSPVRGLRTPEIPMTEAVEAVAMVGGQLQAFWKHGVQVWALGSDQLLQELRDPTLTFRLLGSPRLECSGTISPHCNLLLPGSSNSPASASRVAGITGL

inhibition at 1 µM [%] | IC50 [µM] | inhibition at 10 µM [%] | Compound
75.9 | < 0.05 |  | C/C(Nc1ccn(C(C)C#N)n1)=C1/C(=O)Nc2cnc(-c3cnccc3C)cc21 (stereo in doubt) [Example 116]
69.8 | 0.1 to 0.5 | 84 | CN/C(=C1\C(=O)Nc2ccc(-c3c(F)cccc3OC)cc21)c1ccccc1 [Example 1, 5-(2-fluoro-6-methoxyphenyl)-3-((methylamino)(phenyl)methylene)indolin-2-one]
88.6 | < 0.05 | 82.5 | COc1cccc(F)c1-c1ccc2c(c1)/C(=C(\C)Nc1ccc(N3CCN(C)CC3)cc1)C(=O)N2 [Example 2, (Z)-5-(2-Fluoro-6-methoxyphenyl)-3-(1-((4-(4-methylpiperazin-1-yl)phenyl)amino)ethylidene)indolin-2-one]
62.5 | 0.1 to 0.5 |  | COc1cccc(F)c1-c1ccc2c(c1)/C(=C(\C)Nc1ccccc1)C(=O)N2 [Example 3, (Z)-5-(2-Fluoro-6-methoxyphenyl)-3-(1-(phenylamino)ethylidene)indolin-2-one]
90.1 | < 0.05 | 91 | COc1cccc(F)c1-c1ccc2c(c1)/C(=C(\C)Nc1ccc(N3CCN(C4COC4)CC3)nc1)C(=O)N2 [Example 4, (Z)-5-(2-Fluoro-6-methoxyphenyl)-3-(1-((6-(4-(oxetan-3-yl)piperazin-1-yl)pyridin-3-yl)amino)ethylidene)indolin-2-one]
76.1 | 0.1 to 0.5 | 85.5 | C/C(Nc1ccc(N2CCN(C3COC3)CC2)nc1)=C1/C(=O)Nc2ccc(F)cc21 [Example 5, (Z)-5-Fluoro-3-(1-((6-(4-(oxetan-3-yl)piperazin-1-yl)pyridin-3-yl)amino)ethylidene)indolin-2-one]
85.5 | < 0.05 | 87.3 | C/C(Nc1ccc(N2CCN(C)CC2)cc1)=C1/C(=O)Nc2ccc(F)cc21 [Example 6, (Z)-5-Fluoro-3-(1-((4-(4-methylpiperazin-1-yl)phenyl)amino)ethylidene)indolin-2-one]
82.4 | < 0.05 | 87.1 | COc1cccc(F)c1-c1ccc2c(c1)/C(=C(\C)Nc1ccc(N(C)C(=O)CN3CCN(C)CC3)cc1)C(=O)N2 [Example 7, (Z)-N-(4-((1-(5-(2-Fluoro-6-methoxyphenyl)-2-oxoindolin-3-ylidene)ethyl)amino)phenyl)-N-methyl-2-(4-methylpiperazin-1-yl)acetamide]
84.8 | < 0.05 | 83.8 | COc1cccc(F)c1-c1ccc2c(c1)/C(=C(\C)Nc1ccc(N3CCNCC3)cc1)C(=O)N2 [Example 8, (Z)-5-(2-Fluoro-6-methoxyphenyl)-3-(1-((4-(piperazin-1-yl)phenyl)amino)ethylidene)indolin-2-one]
84.9 | < 0.05 | 84.4 | CC/C(Nc1ccc(N2CCN(C)CC2)cc1)=C1/C(=O)Nc2ccc(-c3c(F)cccc3OC)cc21 [Example 9, (Z)-5-(2-Fluoro-6-methoxyphenyl)-3-(1-((4-(4-methylpiperazin-1-yl)phenyl)amino)propylidene)indolin-2-one]
82.6 | < 0.05 | 88.2 | COc1cccc(F)c1-c1ccc2c(c1)/C(=C(\C)Nc1cnn(C)c1)C(=O)N2 [Example 10, (Z)-5-(2-Fluoro-6-methoxyphenyl)-3-(1-((1-methyl-1H-pyrazol-4-yl)amino)ethylidene)indolin-2-one]
73.2 | 0.1 to 0.5 | 84.4 | COc1cccc(F)c1-c1ccc2c(c1)/C(=C(\C)Nc1ccc(N3CCN(C)CC3)cc1C)C(=O)N2 [Example 11, (Z)-5-(2-Fluoro-6-methoxyphenyl)-3-(1-((2-methyl-4-(4-methylpiperazin-1-yl)phenyl)amino)ethylidene)indolin-2-one]
48 | > 0.5 | 55.8 | COc1cc2c(cc1N/C(C)=C1\C(=O)Nc3ccc(-c4c(F)cccc4OC)cc31)CNCC2 [Example 12, (Z)-5-(2-Fluoro-6-methoxyphenyl)-3-(1-((6-methoxy-1,2,3,4-tetrahydroisoquinolin-7-yl)amino)ethylidene)indolin-2-one. PTSA salt]
73.3 | 0.05 to 0.1 |  | COc1cccc(F)c1-c1ccc2c(c1)/C(=C(\C)Nc1ccc(N3CCOCC3)cc1)C(=O)N2 [Example 13, (Z)-5-(2-Fluoro-6-methoxyphenyl)-3-(1-((4-morpholinophenyl)amino)ethylidene)indolin-2-one]
86.3 | < 0.05 | 88.3 | COc1cccc(F)c1-c1cc2c(cn1)NC(=O)/C2=C(/C)Nc1ccc(N2CCN(C)CC2)cc1 [Example 14, (Z)-5-(2-fluoro-6-methoxyphenyl)-3-(1-((4-(4-methylpiperazin-1-yl)phenyl)amino)ethylidene)-1H-pyrrolo[2,3-c]pyridin-2(3H)-one]
85.2 | < 0.05 | 87 | COc1cccc(F)c1-c1ccc2c(c1)/C(=C(/Nc1cnn(C)c1)c1ccccc1)C(=O)N2 [Example 15, (Z)-5-(2-Fluoro-6-methoxyphenyl)-3-(((1-methyl-1H-pyrazol-4-yl)amino)(phenyl)methylene)indolin-2-one]
85.3 | < 0.05 | 88.9 | COc1cccc(F)c1-c1cc2c(cn1)NC(=O)/C2=C(/C)Nc1cnn(C)c1 [Example 16, (Z)-5-(2-Fluoro-6-methoxyphenyl)-3-(1-((1-methyl-1H-pyrazol-4-yl)amino)ethylidene)-1H-pyrrolo[2,3-c]pyridin-2(3H)-one]
85.7 | < 0.05 | 83.3 | CC/C(Nc1cnn(C)c1)=C1/C(=O)Nc2ccc(-c3c(F)cccc3OC)cc21 [Example 17, (Z)-5-(2-Fluoro-6-methoxyphenyl)-3-(1-((1-methyl-1H-pyrazol-4-yl)amino)propylidene)indolin-2-one]
89.8 | < 0.05 | 85.4 | COc1cccc(F)c1-c1ccc2c(c1)/C(=C(\C)Nc1ccn(C)n1)C(=O)N2 [Example 18, (Z)-5-(2-Fluoro-6-methoxyphenyl)-3-(1-((1-methyl-1H-pyrazol-3-yl)amino)ethylidene)indolin-2-one]
85.2 | < 0.05 | 80.1 | COc1cccc(F)c1-c1cc2c(cc1Cl)NC(=O)/C2=C(/C)Nc1cnn(C)c1 [Example 20]
83.1 | < 0.05 | 80 | COc1cccc(F)c1-c1cc2c(cc1C)NC(=O)/C2=C(/C)Nc1cnn(C)c1 [Example 21, (Z)-5-(2-Fluoro-6-methoxyphenyl)-6-methyl-3-(1-((1-methyl-1H-pyrazol-4-yl)amino)ethylidene)indolin-2-one]
86.6 | < 0.05 | 90.5 | CCOc1cccc(F)c1-c1cc2c(cn1)NC(=O)/C2=C(/C)Nc1cnn(CC)c1 [Example 22, (Z)-5-(2-Ethoxy-6-fluorophenyl)-3-(1-((1-ethyl-1H-pyrazol-4-yl)amino)ethylidene)-1H-pyrrolo[2,3-c]pyridin-2(3H)-one]
